Test results from article PMC11772155, “Solid-Phase-Supported Chemoenzymatic Synthesis and Analysis of Chondroitin Sulfate Proteoglycan Glycopeptides” (Angewandte Chemie (International ed. in English), 2024).
Where two headings read alike, the source gives them in different places. Numbered stars: 1 amine (or outer) side, 2 acyl side, 3 side chain; on linkers, the order of the positions; unused ones are H or OH. Square brackets hold non-standard residues; d marks the D form. Ends that are not written are not given here. Peptide text beside a SMILES is read from it. X3 = CC(=O)N[C@H]1[C@H](O[C@H]2[C@H](O)[C@@H](O)[C@H](O[C@H]3[C@@H](O)[C@@H](CO)O[C@@H](O[C@H]4[C@H](O)[C@@H](O)[C@H](O[C@H]5[C@@H](O)[C@@H](CO)O[C@@H](O[C@H]6[C@H](O)[C@@H](O)[C@H](O[C@H]7[C@@H](O)[C@@H](CO)O[C@@H](O[C@H]8[C@H](O)[C@@H](O)[C@H](O[C@H]9[C@@H](O)[C@@H](CO)O[C@@H](O[C@H]%10[C@@H](O)[C@@H](CO)O[C@@H](O[C@@H]%11CO[C@@H](OC[C@H](N[*:1])C(=O)[*:2])[C@H](O)[C@H]%11O)[C@@H]%10O)[C@@H]9O)O[C@@H]8C(=O)O)[C@@H]7NC(C)=O)O[C@@H]6C(=O)O)[C@@H]5NC(C)=O)O[C@@H]4C(=O)O)[C@@H]3NC(C)=O)O[C@@H]2C(=O)O)O[C@H](CO)[C@H](O)[C@@H]1O[C@@H]1O[C@H](C(=O)O)[C@@H](O)[C@H](O)[C@H]1O; X1 = CC(=O)N[C@H]1[C@H](O[C@H]2[C@H](O)[C@@H](O)[C@H](O[C@H]3[C@@H](O)[C@@H](CO)O[C@@H](O[C@H]4[C@@H](O)[C@@H](CO)O[C@@H](O[C@@H]5CO[C@@H](OC[C@H](N[*:1])C(=O)[*:2])[C@H](O)[C@H]5O)[C@@H]4O)[C@@H]3O)O[C@@H]2C(=O)O)O[C@H](CO)[C@H](OS(=O)(=O)O)[C@@H]1O[C@@H]1O[C@H](C(=O)O)[C@@H](O[C@@H]2O[C@H](CO)[C@H](OS(=O)(=O)O)[C@H](O[C@@H]3O[C@H](C(=O)O)[C@@H](O[C@@H]4O[C@H](CO)[C@H](O)[C@H](O[C@@H]5O[C@H](C(=O)O)[C@@H](O)[C@H](O)[C@H]5O)[C@H]4NC(C)=O)[C@H](O)[C@H]3O)[C@H]2NC(C)=O)[C@H](O)[C@H]1O; X2 = CC(=O)N[C@H]1[C@H](O[C@H]2[C@H](O)[C@@H](O)[C@H](O[C@H]3[C@@H](O)[C@@H](CO)O[C@@H](O[C@H]4[C@@H](O)[C@@H](CO)O[C@@H](O[C@@H]5CO[C@@H](OC[C@H](N[*:1])C(=O)[*:2])[C@H](O)[C@H]5O)[C@@H]4O)[C@@H]3O)O[C@@H]2C(=O)O)O[C@H](CO)[C@H](OS(=O)(=O)O)[C@@H]1O[C@@H]1O[C@H](C(=O)O)[C@@H](O[C@@H]2O[C@H](CO)[C@H](O)[C@H](O[C@@H]3O[C@H](C(=O)O)[C@@H](O)[C@H](O)[C@H]3O)[C@H]2NC(C)=O)[C@H](O)[C@H]1O

Molecular target: T1, Human Neutrophil Cathepsin G (Homo sapiens, UniProt P08311)
T1 construct: Human Neutrophil Cathepsin G was purchased from Athens; purchased Athens Research & Technology, Inc. (Athens, Georgia)
T1 sequence (P08311 21-243 limits assumed): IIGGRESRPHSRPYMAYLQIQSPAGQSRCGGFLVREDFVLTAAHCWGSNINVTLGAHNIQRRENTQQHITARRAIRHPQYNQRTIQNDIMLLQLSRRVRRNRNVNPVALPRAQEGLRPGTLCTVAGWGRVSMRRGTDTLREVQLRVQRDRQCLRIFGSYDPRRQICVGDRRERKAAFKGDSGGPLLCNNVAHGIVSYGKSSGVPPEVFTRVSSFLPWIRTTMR
Test: BLI (biolayer interferometry) binding assay of immobilized biotinylated compounds with Cathepsin G
From the text: With structurally defined glycopeptides in hand, we aim to better understand the structural features needed for bikunin glycopeptide binding. Cathepsin G (CatG), a neutrophil serine protease, plays a crucial role in regulating various physiological processes, including inflammation, digestion, smooth muscle contraction, and tissue remodeling.[64] While CatG has been reported to interact with CSPG, the structural requirement of CSPG binding has not been established.[25] To measure the binding affinity towards CatG, peptides 5 and glycopeptides 10, 18–21 were biotinylated and immobilized on streptavidin coated sensors for biolayer interferometry (BLI) studies. Biotinylated 50 kDa CS and CS-A were also immobilized on the sensors for comparison. […]
General procedure of glycopeptide biotinylation
To a solution of peptide or glycopeptide in DMSO/H 2O (1/1, 0.1 ml) was added NHS-LC-Biotin (4 equiv.) and diisoproylethylamine (pH ~ 8.5). The reaction was incubated at 37 °C for 2 h. Then the mixture was dried in vacuo and purified by HPLC.
General procedure for BLI binding assay
The binding assay was performed on the Octet K2 System (Pall ForteBio). The biotinylated compounds were incubated with streptavidin (SA) sensors for 2 min. The sensor was then balanced in the assay buffer (PBS containing 0.005% P20) and dipped into Cathepsin G solution in assay buffer at 2000 nM, 1000 nM, 500 nM, 250 nM concentrations.
After 5 min of association, the sensor was brought back to the previous assay buffer for a 5 min dissociation step. At the end of the assay, the sensor was regenerated in 2 M NaCl to remove the bound protein. Each measurement was repeated 3 times on the same sensor. The control assay was performed with another sensor loaded with a 2 mM biotin solution.
Figure S3. Binding of peptide and glycopeptides a) 5, b) 10 , c) 18 , d) 19 , e) 20 , f) 21 , g) commercially available biotinylated 50 kDa CS, and h) 50 kDa CS-A to neutrophil Cathepsin G as measured by BLI ( a-h respectively). The biotinylated compounds (50 nM) were immobilized on streptavidin coated biosensors, and human neutrophil Cathepsin G was captured on biosensors with four concentrations at 2000 nM, 1000 nM, 500 nM, 250 nM.
Fitting curves were shown in red lines. […]

[1] = biotinylated compounds immobilized on streptavidin sensors, Cathepsin G at 2000, 1000, 500, 250 nM in PBS containing 0.005% P20, read-out: KD (nM) with Cathepsin G

Compound: H-AVLPQEEEGSGGGQLVTEVTKKEDS [Compound 5]
- Kd [1]: 400 ± 40 nM

Compound: CC(=O)N[C@H]1[C@H](O[C@H]2[C@H](O)[C@@H](O)[C@H](O[C@H]3[C@@H](O)[C@@H](CO)O[C@@H](O[C@H]4[C@@H](O)[C@@H](CO)O[C@@H](O[C@@H]5CO[C@@H](OC[C@H](NC(=O)CNC(=O)[C@H](CCC(=O)O)NC(=O)[C@H](CCC(=O)O)NC(=O)[C@H](CCC(=O)O)NC(=O)[C@H](CCC(N)=O)NC(=O)[C@@H]6CCCN6C(=O)[C@H](CC(C)C)NC(=O)[C@@H](NC(=O)[C@H](C)N)C(C)C)C(=O)NCC(=O)NCC(=O)NCC(=O)N[C@@H](CCC(N)=O)C(=O)N[C@@H](CC(C)C)C(=O)N[C@H](C(=O)N[C@H](C(=O)N[C@@H](CCC(=O)O)C(=O)N[C@H](C(=O)N[C@H](C(=O)N[C@@H](CCCCN)C(=O)N[C@@H](CCCCN)C(=O)N[C@@H](CCC(=O)O)C(=O)N[C@@H](CC(=O)O)C(=O)N[C@@H](CO)C(=O)O)[C@@H](C)O)C(C)C)[C@@H](C)O)C(C)C)[C@H](O)[C@H]5O)[C@@H]4O)[C@@H]3O)O[C@@H]2C(=O)O)O[C@H](CO)[C@H](OS(=O)(=O)O)[C@@H]1O[C@@H]1O[C@H](C(=O)O)[C@@H](O[C@@H]2O[C@H](CO)[C@H](O)[C@H](O[C@@H]3O[C@H](C(=O)O)[C@@H](O)[C@H](O)[C@H]3O)[C@H]2NC(C)=O)[C@H](O)[C@H]1O [Compound 19] (H-AVLPQEEEG[X2]GGGQLVTEVTKKEDS-OH; N-terminus and C-terminus assumed)
- Kd (read-out: KD (nM) with Cathepsin G, biotinylated compounds immobilized on streptavidin sensors, Cathepsin G at 2000, 1000, 500, 250 nM in PBS containing 0.005% P20): 49 ± 5 nM

Compound: CC(=O)N[C@H]1[C@H](O[C@H]2[C@H](O)[C@@H](O)[C@H](O[C@H]3[C@@H](O)[C@@H](CO)O[C@@H](O[C@H]4[C@H](O)[C@@H](O)[C@H](O[C@H]5[C@@H](O)[C@@H](CO)O[C@@H](O[C@H]6[C@H](O)[C@@H](O)[C@H](O[C@H]7[C@@H](O)[C@@H](CO)O[C@@H](O[C@H]8[C@H](O)[C@@H](O)[C@H](O[C@H]9[C@@H](O)[C@@H](CO)O[C@@H](O[C@H]%10[C@@H](O)[C@@H](CO)O[C@@H](O[C@@H]%11CO[C@@H](OC[C@H](NC(=O)CNC(=O)[C@H](CCC(=O)O)NC(=O)[C@H](CCC(=O)O)NC(=O)[C@H](CCC(=O)O)NC(=O)[C@H](CCC(N)=O)NC(=O)[C@@H]%12CCCN%12C(=O)[C@H](CC(C)C)NC(=O)[C@@H](NC(=O)[C@H](C)N)C(C)C)C(=O)NCC(=O)NCC(=O)NCC(=O)N[C@@H](CCC(N)=O)C(=O)N[C@@H](CC(C)C)C(=O)N[C@H](C(=O)N[C@H](C(=O)N[C@@H](CCC(=O)O)C(=O)N[C@H](C(=O)N[C@H](C(=O)N[C@@H](CCCCN)C(=O)N[C@@H](CCCCN)C(=O)N[C@@H](CCC(=O)O)C(=O)N[C@@H](CC(=O)O)C(=O)N[C@@H](CO)C(=O)O)[C@@H](C)O)C(C)C)[C@@H](C)O)C(C)C)[C@H](O)[C@H]%11O)[C@@H]%10O)[C@@H]9O)O[C@@H]8C(=O)O)[C@@H]7NC(C)=O)O[C@@H]6C(=O)O)[C@@H]5NC(C)=O)O[C@@H]4C(=O)O)[C@@H]3NC(C)=O)O[C@@H]2C(=O)O)O[C@H](CO)[C@H](O)[C@@H]1O[C@@H]1O[C@H](C(=O)O)[C@@H](O)[C@H](O)[C@H]1O [Compound 18] (H-AVLPQEEEG[X3]GGGQLVTEVTKKEDS-OH; N-terminus and C-terminus assumed)
- Kd [1]: 490 ± 18 nM

Compound: CC(=O)N[C@H]1[C@H](O[C@H]2[C@H](O)[C@@H](O)[C@H](O[C@H]3[C@@H](O)[C@@H](CO)O[C@@H](O[C@H]4[C@@H](O)[C@@H](CO)O[C@@H](O[C@@H]5CO[C@@H](OC[C@H](NC(=O)CNC(=O)[C@H](CCC(=O)O)NC(=O)[C@H](CCC(=O)O)NC(=O)[C@H](CCC(=O)O)NC(=O)[C@H](CCC(N)=O)NC(=O)[C@@H]6CCCN6C(=O)[C@H](CC(C)C)NC(=O)[C@@H](NC(=O)[C@H](C)N)C(C)C)C(=O)NCC(=O)NCC(=O)NCC(=O)N[C@@H](CCC(N)=O)C(=O)N[C@@H](CC(C)C)C(=O)N[C@H](C(=O)N[C@H](C(=O)N[C@@H](CCC(=O)O)C(=O)N[C@H](C(=O)N[C@H](C(=O)N[C@@H](CCCCN)C(=O)N[C@@H](CCCCN)C(=O)N[C@@H](CCC(=O)O)C(=O)N[C@@H](CC(=O)O)C(=O)N[C@@H](CO)C(=O)O)[C@@H](C)O)C(C)C)[C@@H](C)O)C(C)C)[C@H](O)[C@H]5O)[C@@H]4O)[C@@H]3O)O[C@@H]2C(=O)O)O[C@H](CO)[C@H](OS(=O)(=O)O)[C@@H]1O[C@@H]1O[C@H](C(=O)O)[C@@H](O[C@@H]2O[C@H](CO)[C@H](OS(=O)(=O)O)[C@H](O[C@@H]3O[C@H](C(=O)O)[C@@H](O[C@@H]4O[C@H](CO)[C@H](O)[C@H](O[C@@H]5O[C@H](C(=O)O)[C@@H](O)[C@H](O)[C@H]5O)[C@H]4NC(C)=O)[C@H](O)[C@H]3O)[C@H]2NC(C)=O)[C@H](O)[C@H]1O [Compound 20] (H-AVLPQEEEG[X1]GGGQLVTEVTKKEDS-OH; N-terminus and C-terminus assumed)
- Kd [1]: 74 ± 7 nM
